In BindingDB's records for doi:10.3109/14756366.2011.651464 (Ege University, 2013):

Columns and labels:
Test in all cases: Esterase Activity Assay
Conditions in all cases: pH 7.4
Carbonic anhydrase 1 = Carbonic anhydrase 1 (Homo sapiens, UniProt P00915)
Carbonic anhydrase 2 = Carbonic anhydrase 2 (Homo sapiens, UniProt P00918)
Carbonic anhydrase 4 = Carbonic anhydrase 4 (Homo sapiens, UniProt P22748)
Carbonic anhydrase 6 = Carbonic anhydrase 6 (Homo sapiens, UniProt P23280)
Carbonic anhydrase 3 = biological target: T1, Carbonic anhydrase 3 (Bos taurus, UniProt Q3SZX4)
T1 sequence (Q3SZX4 whole entry): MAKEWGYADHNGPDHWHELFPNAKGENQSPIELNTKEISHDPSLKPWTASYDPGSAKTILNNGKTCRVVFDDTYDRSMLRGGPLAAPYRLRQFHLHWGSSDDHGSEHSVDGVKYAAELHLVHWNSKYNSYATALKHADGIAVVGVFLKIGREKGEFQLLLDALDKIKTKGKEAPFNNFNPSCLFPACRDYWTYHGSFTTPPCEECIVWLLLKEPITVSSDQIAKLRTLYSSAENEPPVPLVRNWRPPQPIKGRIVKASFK

Chain of Carbonic anhydrase 1 (P00915 whole entry): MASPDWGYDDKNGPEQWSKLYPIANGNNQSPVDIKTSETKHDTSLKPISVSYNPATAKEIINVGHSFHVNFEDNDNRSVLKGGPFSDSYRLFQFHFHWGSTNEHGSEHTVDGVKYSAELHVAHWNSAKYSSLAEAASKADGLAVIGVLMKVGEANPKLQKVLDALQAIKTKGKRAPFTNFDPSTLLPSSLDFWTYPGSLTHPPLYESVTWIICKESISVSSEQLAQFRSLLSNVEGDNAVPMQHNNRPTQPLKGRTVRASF
Chain of Carbonic anhydrase 4 (P22748 whole entry): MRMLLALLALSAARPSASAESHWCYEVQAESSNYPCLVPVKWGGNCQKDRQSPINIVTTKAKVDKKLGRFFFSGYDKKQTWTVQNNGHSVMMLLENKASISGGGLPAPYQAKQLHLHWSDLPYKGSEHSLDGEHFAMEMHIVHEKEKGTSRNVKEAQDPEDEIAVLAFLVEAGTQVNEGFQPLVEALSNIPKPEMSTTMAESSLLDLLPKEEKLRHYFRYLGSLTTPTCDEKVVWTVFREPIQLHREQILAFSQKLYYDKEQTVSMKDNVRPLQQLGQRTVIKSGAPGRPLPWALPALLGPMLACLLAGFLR
Chain of Carbonic anhydrase 6 (P23280 whole entry): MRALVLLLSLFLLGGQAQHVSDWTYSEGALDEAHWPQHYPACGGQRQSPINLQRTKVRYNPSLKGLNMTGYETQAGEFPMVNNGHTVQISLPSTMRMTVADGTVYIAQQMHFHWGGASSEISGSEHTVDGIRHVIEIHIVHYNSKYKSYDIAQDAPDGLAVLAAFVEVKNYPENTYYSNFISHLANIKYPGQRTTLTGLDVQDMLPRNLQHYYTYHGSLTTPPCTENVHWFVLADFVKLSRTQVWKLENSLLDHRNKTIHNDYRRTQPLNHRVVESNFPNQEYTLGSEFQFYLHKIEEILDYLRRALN

SMILES	Ki (Carbonic anhydrase 1) [nM]	Ki (Carbonic anhydrase 2) [nM]	Ki (Carbonic anhydrase 4) [nM]	Ki (Carbonic anhydrase 6) [nM]	Ki (Carbonic anhydrase 3) [nM]
Oc1cc(O)c2c(c1)O[C@H](c1ccc(O)c(O)c1)[C@H](O)C2	2320	1240	3980	4360	8930
Oc1ccccc1O [1,2-Dihydroxybenzene, XI]					5790
O=c1c(O)c(-c2ccc(O)c(O)c2)oc2cc(O)cc(O)c12 [2-(3,4-dihydroxyphenyl)-3,5,7-trihydroxy-chromone;hydrate]					3730
CC(C)(O)[C@@H]1CC[C@](C)([C@H]2[C@@H](O)C[C@@]3(C)C4C[C@H](O[C@@H]5OC(CO)[C@@H](O)C(O)[C@@H]5O)C5C(C)(C)[C@@H](O[C@@H]6OC[C@@H](O)C(O)[C@@H]6O[C@@H]6OC[C@H](O)C(O)[C@@H]6O)CC[C@@]56C[C@@]46CC[C@]23C)O1 (stereo partly drawn) [α-CA inhibitor, 7]	940	470	2410	4710	1380
CC(C)(O)[C@@H]1CC[C@](C)([C@H]2[C@@H](O)C[C@@]3(C)C4C[C@H](O[C@@H]5OC(CO)[C@@H](O)C(O)[C@@H]5O)C5C(C)(C)[C@@H](O[C@@H]6OC[C@@H](O)C(O)[C@@H]6O)CC[C@@]56C[C@@]46CC[C@]23C)O1 (stereo partly drawn) [α-CA inhibitor, 8]	1470	970	2750	6960	1930

Other lines, results leading:

Ki (Carbonic anhydrase 1) [nM]	Ki (Carbonic anhydrase 2) [nM]	Ki (Carbonic anhydrase 4) [nM]	Ki (Carbonic anhydrase 6) [nM]	Ki (Carbonic anhydrase 3) [nM]	SMILES
				196000	Oc1cccc(O)c1
				9710	Oc1cc(O)c2c(c1)O[C@H](c1ccc(O)c(O)c1)[C@@H](O)C2 [(+)-Catechin]
2210	1280	4360	9780	2490	CC(C)(O)[C@@H]1CC[C@](C)([C@H]2[C@@H](O)C[C@@]3(C)C4C[C@H](O[C@@H]5OC[C@@H](O)C(O)[C@@H]5O)C5C(C)(C)[C@@H](O[C@@H]6OC[C@@H](O)C(O)[C@@H]6O)CC[C@@]56C[C@@]46CC[C@]23C)O1 (stereo partly drawn) [α-CA inhibitor, 10]
